Assay results published in patent publication US20160030459A1, “COMPOSITIONS AND METHODS FOR TREATING ALLERGIC CONDITIONS” (IMMUNE DESIGN CORP., priority 2014, published 2016).

How the values were obtained:
[1] = system: Male Balb/c mice sensitized with OVA; experiment: Murine model of chronic allergy (OVA-induced airway inflammation and hyperreactivity); assay type: in vivo, mouse
Description: The effect of GLA was evaluated in a chronic model Of OVA-induced airway inflammation and airway hyperreactivity in mice. Male Balb/c mice were sensitized systemically with OVA i.p. over a 2 week period (days 0 & 14). One week later, they were challenged with OVA i.n for 3 consecutive days (days 22 through 24). The animals were then treated once with GLA, in an aqueous formulation, i.n., 1 day post-challenge (day 25) as follows (20 mice per group):
Vehicle-treated; Saline challenged (negative control) Vehicle-treated; OVA challenged (positive control) GLA-treated, single dose (2 ug/animal, i.n.); OVA challenged
The animals were challenged again with OVA i.n. 1 month later (days 55 & 56). AHR as described above in Example 2 was performed 1-2 days post 2nd challenge (the large number of animals required two days to complete the AHR testing). Bronchoalveolar lavage fluid (BALF), thoracic lymph nodes and spleen were collected for FACS & cytokine analysis, and serum was collected for IgE and IgG levels.

[2] = system: mice presensitized with intra-gastric RPE; experiment: Murine model of peanut allergy, related study with GLA-SE +/- peanut extract; assay type: in vivo, mouse; details: with or without antigen, s.c.
Description: In a related study, mice were presensitized with intra-gastric RPE six times at days 0, 1, 2, 7, 14 and 21 (FIG. 15). On days 29, 35, 42 and 49, mice were treated subcutaneously with 2 ug GLA-SE or 2 ug GLA-SE+50 ug RPE. Mice were subsequently challenged by intraperitoneal administration on study day 55 with 12 mg RPE. Anaphylaxis scores and body temperature of mice were then measured. […] Disease scoring was as follows: 1: mild anaphylaxis (scratching, mild snout swelling); 2: Moderate anaphylaxis (mod swelling, mild lethargy) 3: =Severe anaphylaxis (severe swelling, lethargy); 4: Very severe anaphylaxis (moribund, labored breathing); 5: Death.

various human cell types = experiment: Effect of GLA adjuvant in vitro on cytokine expression of human cells; assay type: cell-based
Description: (§1) The effect of GLA adjuvant in vitro on various human cell types was evaluated.

[3] = system: PBMCs from peanut allergic subjects; experiment: T cell proliferation and cytokine expression of PBMCs from peanut-allergic subjects; assay type: cell-based, human
Description: PBMCs were collected from peanut allergic and non-allergic subjects (n=4) and evaluated for T cell proliferation and cytokine expression after exposure to peanut extract and GLA. […] In addition, these samples had increased tolerogenic IL-10 expression and […] IL-2 expression indicative of inhibition of T cell proliferation.

[4] = system: Male cynomolgus macaques with a known sensitivity to inhaled Ascaris suum; experiment: Primate model of allergic rhinitis, intranasal adjuvant; assay type: in vivo, cynomolgus macaque
Description: GLA adjuvant was evaluated in a nonhuman primate allergic rhinitis model. Male cynomolgus macaques with a known sensitivity to inhaled Ascaris suum were treated with a composition comprising a GLA adjuvant, in an aqueous formulation, via intranasal delivery.
12 animals were assigned randomly to each of vehicle or drug treatment groups. The drug treatment group received 100 μl of a composition containing 5.0 μg GLA adjuvant in an aqueous formulation, intranasally in each nostril, for a total dose of 10 μg. The vehicle group received 100 μl of vehicle in each nostril. The adjuvant or vehicle was administered intranasally once weekly for 4 consecutive weeks. All intranasal dosing was administered using a Penn Century Microsprayer.
The animals were challenged with Ascaris suum into the left nostril concurrent with treatment on days 0 and 14 (at the first and third treatment times).
Animals with severe rhinitis have reduced nasal area or increased nasal congestion as compared to those with improved response and increased nasal area or decreased nasal congestion. Nasal lavage samples were also obtained and total and differential cell count were evaluated.
Briefly, animals were sedated and placed on a ventilator. Blood samples were drawn. A baseline Acoustic Rhinometer measurement (nasal volume and nasal minimum cross-sectional area) was taken in the left nostril followed by instillation of 100 μl saline using a microspayer. After instillation of saline, Acoustic Rhinometry measurements (nasal volume and nasal minimum cross-sectional area) were taken at 2 minutes. Next 100 μl of A. suum (10.0 mg/ml) was instilled into the left nostril using a microsprayer and Acoustic Rhinometry measurements were taken at 1, 2, 3 minutes. Fifteen minutes after A. suum challenge a nasal lavage was performed using 3.0 ml saline injected into the left nostril. After nasal lavage, sedation was reversed.
Total cell count in the nasal lavage samples was determined using the Advia120 hematology analyzer (SOP BW-INM-Resp-SOP-09033). Differential cell counts were performed with cystospins manually on 200 cells using standard morphological criteria.

OVA-sensitized mice = experiment: Prophylactic dosing regimens in murine model of allergy; assay type: in vivo, mouse
Description: Three different prophylactic dosing regimens of GLA adjuvant, in an aqueous formulation, were evaluated in the same murine model of allergy described in Example 2. Mice were divided into three treatment arms (20 mice per group), treated as follows starting at 1 week post OVA sensitization, and then challenged with OVA or saline (negative control):
Vehicle-treated at day 14; Saline challenged (negative control) Vehicle-treated at day 14; OVA challenged (positive control) GLA-treated at day 14, with a single dose of GLA (2 ug/animal, i.n.); OVA challenged GLA-treated on days 14, 15, 16, 17, with 4 doses of GLA on consecutive days (each dose 2 ug/animal, i.n.); OVA challenged GLA+Ag-treated on day 14, single dose GLA (2 ug/animal, i.n.)+OVA antigen (20 ug/animal, i.n.); OVA challenged
The animals were challenged with OVA or saline i.n. for 4 consecutive days, 5-7 days post treatment (at days 22, 23, 24 and 25). Airway hyperresponsiveness (AHR) was determined at 1 or 2 days post challenge (the large number of animals required two days to complete the AHR testing). Bronchoalveolar lavage fluid (BALF), thoracic lymph nodes and spleen were collected for FACS & cytokine analysis, and serum was collected for IgE and IgG levels.

[5] = system: dendritic cells (both myeloid and monocyte-derived); experiment: Activation and maturation of dendritic cells in vitro; assay type: cell-based, human
Description: as §1

[6] = system: PBMCs from Timothy Grass allergic subjects; experiment: Cytokine expression of PBMCs from Timothy grass-allergic subjects; assay type: cell-based, human; details: Timothy grass allergen and GLA
Description: PBMCs were collected from Timothy Grass allergic and non-allergic subjects and evaluated for T cell cytokine expression after exposure to Timothy grass allergen and GLA. As shown in FIG. 16A-16D, GLA decreased IL-5 and increased IFN-γ, IL-12 and TNF-alpha cytokine response to Timothy grass allergen.

[7] = system: Male cynomolgus macaques with a known sensitivity to inhaled Ascaris suum; experiment: Primate model of allergic rhinitis, intramuscular adjuvant; assay type: in vivo, cynomolgus macaque; details: GLA 10 ug intramuscularly, four weekly doses; ascaris antigens intranasally
Description: GLA adjuvant was evaluated in a nonhuman primate allergic rhinitis model. Male cynomolgus macaques with a known sensitivity to inhaled Ascaris suum were treated with a composition comprising a GLA adjuvant, in an oil-based emulsion formulation, with and without allergen, via intramuscular delivery.
Animals (n=12) were treated with four doses of GLA (10 ug) at weekly intervals and were exposed to Ascaris suum antigens at the same time. The evaluation of the response was determined by acoustic rhinometry which measured the nasal area as an indication of congestion Animals with severe rhinitis have reduced nasal area or increased nasal congestion as compared to those with improved response and increased nasal area or decreased nasal congestion.
In this study, animals treated with GLA-SE were compared with animals treated with SE alone. In addition, ascaris antigens in conjunction with GLA were tested. Ascaris antigens were either delivered in combination with GLA via the intramuscular route of administration, or were delivered intranasally separate from the intramuscular GLA treatment.

[8] = Day 1 after peanut extract and GLA exposure
[9] = treatment period (weeks 1-4) and 4 weeks post treatment (weeks 5-8)
[10] = 4 doses on days 14, 15, 16, 17, each 2 ug/animal i.n.
[11] = single dose day 14, 2 ug/animal i.n.

CCCCCCCCCCCCCC(=O)OC(CCCCCCCCCCC)CC(=O)NC1C(OCC2OC(O)C(NC(=O)CC(O)CCCCCCCCCCC)C(OC(=O)CC(O)CCCCCCCCCCC)C2O)OC(CO)C(OP(=O)(O)O)C1OC(=O)CC(CCCCCCCCCCC)OC(=O)CCCCCCCCCCCCC (centres unmarked) [GLA, glucopyranosyl lipid A]
leukocyte cell count in BALF (including eosinophil, macrophage or CD3+ T cell counts) ([1]; single dose 2 ug/animal i.n.): did not alter
time after GLA dosing for which effects could be observed ([1]; single dose 2 ug/animal i.n.): at least 1 month
airway hyperresponsiveness ([1]; single dose 2 ug/animal i.n. day 25, 1 month before allergen challenge): attenuate
IL-4 expression in the airway after allergen challenge ([1]; single dose 2 ug/animal i.n. one month before allergen challenge): attenuate
peanut allergy in a mouse model [2]: attenuates
GM-CSF expression (various human cell types): induced expression
IL-1β expression (various human cell types): induced expression
IL-6 expression (various human cell types): induced expression
IL-8 expression (various human cell types): induced expression
IL-10 expression (various human cell types): induced expression
TNF-α expression (various human cell types): induced expression
IL12p70 (IL-12) expression [3, 8]: increased
IL-2 expression [3, 8]: increased
interferon gamma expression [3, 8]: increased
tolerogenic IL-10 expression [3, 8]: increased
CD4 T cell proliferation ([3]; Day 6 after exposure to peanut extract and GLA): dose-dependent antigen specific inhibition
percentage of baseline nasal cross sectional area ([4]; 10 μg intranasal once weekly for 4 weeks, compared with vehicle): increased
antigen-induced nasal congestion ([4]; aqueous formulation, 10 μg intranasal once weekly for 4 weeks, A. suum challenge): reduced
differential cell count (lymphocyte, monocyte, granuolocyte, neutrophil, eosinophil or basophil cell numbers) [4, 9]: not altered
platelet counts [4, 9]: did not alter
red blood cell counts [4, 9]: did not alter
white blood cell counts [4, 9]: did not alter
CD3+ T cells in BALF (OVA-sensitized mice; [10]): decreased
eosinophil in BALF (OVA-sensitized mice; [10]): decreased
total leukocytes in BALF (OVA-sensitized mice; [10]): decreased
cellularity systemically, in spleen or lymph nodes (OVA-sensitized mice; i.n. GLA treatment): did not alter
numbers of CD3+ T cells in BALF (OVA-sensitized mice; [11]): did not alter
numbers of eosinophils in BALF (OVA-sensitized mice; [11]): did not alter
numbers of macrophages in BALF (OVA-sensitized mice; [11]): did not alter
activation and maturation of dendritic cells [5]: induced activation and maturation
IL-12 cytokine response to Timothy grass allergen ([6]; 2 day culture): increases
TNF-alpha cytokine response to Timothy grass allergen ([6]; 2 day culture): increases
IFN-γ cytokine response to Timothy grass allergen ([6]; 6 day culture): increases
IL-5 cytokine response to Timothy grass allergen ([6]; 6 day culture): decreases
nasal rhinitis scores [7]: did not improve
